Results from PubChem BioAssay (NCI).
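Values below derive from 48-hour exposures of cells grown in 96-well plates, with endpoints linearly interpolated between the two concentrations bracketing the appropriate inhibition level. TGI: total growth inhibition.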

Experiments:
Assay in all cases: growth of human tumour cells (NCI), 48 h
[1] = tested on: A498 renal
[2] = tested on: OVCAR-4 ovarian
[3] = tested on: SNB-19 CNS
[4] = tested on: ACHN renal
[5] = tested on: SNB-75 CNS
[6] = tested on: NCI/ADR-RES ovarian
[7] = tested on: SF-268 CNS
[8] = tested on: COLO 205 colon
[9] = tested on: T-47D breast
[10] = tested on: UO-31 renal
[11] = tested on: M14 melanoma
[12] = tested on: MDA-MB-231 breast
[13] = tested on: SK-OV-3 ovarian
[14] = tested on: MCF7 breast
[15] = tested on: NCI-H23 lung
[16] = tested on: MALME-3M melanoma

`CC1(C)[C@@H](Cn2cc(I)c(=O)[nH]c2=O)CC[C@@]1(C)CO` was tested, and the TGI [1] was over 100 µM, the TGI [2] was over 100 µM and the TGI [3] was over 100 µM. It also gave a TGI [4] of over 100 µM, a TGI [5] of over 100 µM and a TGI [6] of over 100 µM. It also gave a TGI [7] of over 100 µM, a TGI [8] of over 100 µM and a TGI [9] of over 100 µM. It also gave a TGI [10] of over 100 µM, a TGI [11] of over 100 µM and a TGI [12] of over 100 µM. The TGI [13] was over 100 µM.
For `C[C@]12c3c4cc(NC(=O)C(=O)NCc5ccc(-c6ccccn6)nc5)cc3Oc3cc(NC(=O)C(=O)NCc5ccc(-c6ccccn6)nc5)cc(c31)OC1C=C(NC(=O)C(=O)NCc3ccc(-c5ccccn5)nc3)C=C(O4)C12` (stereo partly drawn), the TGI [2] was 29.8 µM, the TGI [3] was over 100 µM and the TGI [4] was 59.2 µM. The TGI [5] was 76.3 µM, the TGI [6] was over 100 µM and the TGI [7] was over 100 µM. The TGI [8] was over 100 µM, the TGI [9] was 97.9 µM and the TGI [10] was 68.6 µM. For the same compound, the TGI [11] was over 100 µM, the TGI [14] was over 100 µM and the TGI [12] was 27.5 µM. It also gave a TGI [13] of over 100 µM.
`O=C1OC(c2ccccc2)=N/C1=C\c1ccc([N+](=O)[O-])cc1` was tested, and the TGI [1] was over 100 µM, the TGI [2] was over 100 µM and the TGI [3] was over 100 µM. For the same compound, the TGI [15] was over 100 µM, the TGI [4] was 40.5 µM and the TGI [5] was over 100 µM. For the same compound, the TGI [6] was 55.1 µM, the TGI [7] was over 100 µM and the TGI [8] was over 100 µM. The TGI [9] was 93.9 µM, the TGI [10] was over 100 µM and the TGI [11] was over 100 µM. It also gave a TGI [14] of over 100 µM, a TGI [12] of over 100 µM and a TGI [13] of over 100 µM.
`COc1cc2c(/C=C3/C(=O)Nc4cccc(Cl)c43)c(Cl)[nH]c2cc1C` gave a TGI [1] of 20.7 µM, a TGI [2] of 3.48 µM and a TGI [3] of 7.13 µM. It also gave a TGI [15] of 9.36 µM, a TGI [4] of 12.2 µM and a TGI [5] of 4.03 µM. For the same compound, the TGI [6] was 3.45 µM, the TGI [7] was 19.8 µM and the TGI [8] was 4.1 µM. It also gave a TGI [9] of 5.48 µM, a TGI [10] of 17.1 µM and a TGI [11] of 7.78 µM. For the same compound, the TGI [14] was 8.35 µM, the TGI [12] was 3.2 µM and the TGI [13] was 5.67 µM.
`COc1cc(S(=O)(=O)Nc2ccc(-c3csc(N4C(=O)CSC4c4cccc(Oc5ccccc5)c4)n3)cc2)ccc1Cl` (stereo not drawn) was tested, and the TGI [1] was over 100 µM, the TGI [2] was over 100 µM and the TGI [3] was over 100 µM. It also gave a TGI [15] of over 100 µM, a TGI [4] of over 100 µM and a TGI [5] of over 100 µM. For the same compound, the TGI [16] was over 100 µM, the TGI [6] was over 100 µM and the TGI [7] was over 100 µM. It also gave a TGI [8] of over 100 µM, a TGI [9] of 33.9 µM and a TGI [10] of over 100 µM. The TGI [11] was over 100 µM, the TGI [14] was 51.7 µM and the TGI [13] was over 100 µM.
In the case of `Cc1ccc2nc(-c3ccccc3)cc(=O)n2c1`, the TGI [2] is reported as over 100 µM, the TGI [3] is reported as over 100 µM and the TGI [15] is reported as over 100 µM. It also gave a TGI [4] of over 100 µM, a TGI [5] of over 100 µM and a TGI [16] of over 100 µM. For the same compound, the TGI [6] was over 100 µM, the TGI [7] was over 100 µM and the TGI [8] was over 100 µM. The TGI [9] was over 100 µM, the TGI [11] was over 100 µM and the TGI [14] was over 100 µM. It also gave a TGI [12] of over 100 µM and a TGI [13] of over 100 µM.
`Cc1cc(OC(=O)Nc2cccc3ccccc23)c(C(C)C)cc1C(=S)Nc1ccccc1` gave a TGI [2] of 35 µM, a TGI [3] of 71.3 µM and a TGI [15] of 34.3 µM. The TGI [4] was 73.5 µM, the TGI [16] was 36.8 µM and the TGI [6] was 52.1 µM. For the same compound, the TGI [7] was 77.6 µM, the TGI [8] was 39.4 µM and the TGI [9] was 53.6 µM. The TGI [10] was 40.2 µM, the TGI [11] was 37 µM and the TGI [14] was 34.7 µM. It also gave a TGI [13] of 51.7 µM.
With `C/C(=N\NC(N)=S)c1ccc2c(c1)Sc1ccccc1O2` the TGI [1] was 8.63 µM, the TGI [2] was 57.1 µM and the TGI [3] was over 100 µM. The TGI [15] was 79.1 µM, the TGI [4] was 43.7 µM and the TGI [5] was 7.21 µM. It also gave a TGI [16] of over 100 µM, a TGI [6] of 10.6 µM and a TGI [7] of 8.36 µM. It also gave a TGI [8] of 7.28 µM, a TGI [9] of over 100 µM and a TGI [10] of 28.3 µM. For the same compound, the TGI [11] was over 100 µM, the TGI [12] was over 100 µM and the TGI [13] was 39.5 µM.
In the case of `CC1=C/C(=N\NC(N)=S)C(C(O)(C(F)(F)F)C(F)(F)F)C(C)(C)C1` (stereo not drawn), the TGI [1] is reported as over 10 µM, the TGI [2] is reported as over 10 µM and the TGI [3] is reported as over 10 µM. For the same compound, the TGI [15] was over 10 µM, the TGI [4] was over 10 µM and the TGI [5] was over 10 µM. For the same compound, the TGI [16] was over 10 µM, the TGI [6] was over 10 µM and the TGI [7] was over 10 µM. For the same compound, the TGI [8] was over 10 µM, the TGI [9] was over 10 µM and the TGI [11] was over 10 µM. For the same compound, the TGI [14] was over 10 µM, the TGI [12] was over 10 µM and the TGI [13] was over 10 µM.
`CCOC(=O)CCCSCCCC(=O)CCCSCCCC(=O)OCC` was tested, and the TGI [2] was over 100 µM, the TGI [3] was over 100 µM and the TGI [15] was over 100 µM. For the same compound, the TGI [5] was over 100 µM, the TGI [6] was over 100 µM and the TGI [7] was over 100 µM. It also gave a TGI [8] of over 100 µM, a TGI [9] of over 100 µM and a TGI [10] of over 100 µM. It also gave a TGI [11] of over 100 µM, a TGI [14] of over 100 µM and a TGI [12] of over 100 µM. It also gave a TGI [13] of over 100 µM.
Work on `COC(=O)[C@]1(C)CCC[C@@]2(C)C1CC[C@@]13C=C(C(C)C)[C@@H](CC1=O)CC23` (stereo partly drawn) yielded a TGI [2] of over 100 µM, a TGI [3] of 73.4 µM and a TGI [15] of over 100 µM. It also gave a TGI [4] of 45.1 µM, a TGI [5] of over 100 µM and a TGI [6] of 67.5 µM. It also gave a TGI [7] of over 100 µM, a TGI [9] of over 100 µM and a TGI [10] of 49 µM. For the same compound, the TGI [11] was over 100 µM, the TGI [14] was 64 µM and the TGI [12] was 95.7 µM. For the same compound, the TGI [13] was over 100 µM.
Work on `Cc1[nH]c(=O)nc2sc(=NC3CCCCC3)n(C3CCCCC3)c(=O)c12` yielded a TGI [1] of over 100 µM, a TGI [2] of over 100 µM and a TGI [3] of over 100 µM. For the same compound, the TGI [15] was over 100 µM, the TGI [4] was over 100 µM and the TGI [5] was over 100 µM. The TGI [16] was over 100 µM, the TGI [6] was over 100 µM and the TGI [8] was over 100 µM. For the same compound, the TGI [9] was over 100 µM, the TGI [10] was over 100 µM and the TGI [11] was over 100 µM. For the same compound, the TGI [14] was over 100 µM, the TGI [12] was over 100 µM and the TGI [13] was over 100 µM.
`CCOC(=O)c1nnn(CCCCO)c1C(=O)OCC` showed a TGI [2] of over 100 µM, a TGI [3] of 84.5 µM and a TGI [15] of over 100 µM. For the same compound, the TGI [5] was over 100 µM, the TGI [16] was over 100 µM and the TGI [6] was over 100 µM. It also gave a TGI [7] of over 100 µM, a TGI [8] of over 100 µM and a TGI [9] of over 100 µM. It also gave a TGI [10] of over 100 µM, a TGI [14] of over 100 µM and a TGI [12] of over 100 µM.
`COC(=O)c1cccc(C)c1C1CN=NC12Cc1cc(C)cc(C)c1C2=O` (stereo not drawn) was tested, and the TGI [1] was over 100 µM, the TGI [2] was over 100 µM and the TGI [3] was over 100 µM. It also gave a TGI [15] of over 100 µM, a TGI [4] of over 100 µM and a TGI [5] of 83.1 µM. For the same compound, the TGI [16] was over 100 µM, the TGI [6] was over 100 µM and the TGI [7] was over 100 µM. For the same compound, the TGI [9] was 53.7 µM, the TGI [10] was over 100 µM and the TGI [11] was 93.6 µM. It also gave a TGI [14] of over 100 µM and a TGI [12] of 77.6 µM.
For `COc1ccc(S(=O)(=O)n2c3c(c4ccccc42)[C@@H]2[C@@H](CCCN2C(=O)CS(=O)c2ccc(C)cc2)[C@H](Cl)C3)cc1` (stereo partly drawn), the TGI [1] was over 100 µM, the TGI [3] was over 100 µM and the TGI [15] was over 100 µM. For the same compound, the TGI [5] was over 100 µM, the TGI [16] was over 100 µM and the TGI [6] was over 100 µM. It also gave a TGI [7] of over 100 µM, a TGI [8] of over 100 µM and a TGI [9] of over 100 µM. The TGI [10] was over 100 µM, the TGI [11] was over 100 µM and the TGI [14] was over 100 µM. The TGI [12] was over 100 µM and the TGI [13] was over 100 µM.
`O=[N+]([O-])c1ccc2nc(Nc3ccccc3)c(Nc3ccccc3)nc2c1` was tested, and the TGI [1] was 11.6 µM, the TGI [2] was 11.3 µM and the TGI [3] was 7.7 µM. It also gave a TGI [15] of 4.26 µM, a TGI [4] of 3.11 µM and a TGI [5] of 5.25 µM. The TGI [16] was 4.79 µM, the TGI [6] was 6 µM and the TGI [7] was 7.91 µM. The TGI [8] was 2.97 µM, the TGI [9] was 8.63 µM and the TGI [10] was 2.57 µM. The TGI [12] was 2.64 µM and the TGI [13] was 2.88 µM.
